The source of these data is PubChem BioAssay (NCI).

A word on the TGI: it is the concentration giving total growth inhibition.

Each structure is given as a SMILES string.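 Protocol summary: plate cells (96-well), add compound at 5 concentrations, incubate 48 h, interpolate endpoints linearly. TGI: total growth inhibition.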

Assay in all cases: DTP human tumour cell line panel, 48 h
The subject of assay [1] is UACC-62 melanoma.
Assay [2] has as its system SNB-19 CNS.
Assay [3] relates to SK-MEL-28 melanoma.
For assay [4], the system named is UACC-257 melanoma.
The test system of assay [5] is RPMI-8226 leukemia.
Assay [6] relates to MCF7 breast.
Assay [7] relates to CAKI-1 renal.
The subject of assay [8] is A549 NSCLC.
Assay [9] concerns SW-620 colon.
In assay [10] the test system is SR leukemia.
Assay [11] has as its system RXF 393 renal.
Assay [12] concerns PC-3 prostate.
The subject of assay [13] is TK-10 renal.

Regarding `COC(=O)[C@H](CCSC)NC(=O)c1ccc(CNC(=O)/C=C/c2cccc(Oc3ccccc3)c2)cc1`, the concentration for total growth inhibition (TGI) was 38.2 µM in assay [1]; more than 100 µM in [2]; 34.2 µM in assay [3]; 26.9 µM in assay [4]; more than 100 µM in assay [5]; more than 100 µM in assay [6]. Also, the TGI in assay [7] was more than 80.3 µM; in assay [8] it was more than 100 µM; in [9] it was more than 100 µM; in assay [10], more than 100 µM; in [11], 55.4 µM; in assay [12], more than 100 µM. Besides, the concentration for total growth inhibition (TGI) in assay [13] is more than 87 µM.
With `CC1=CC(C)C(C)N(CCNC(=O)Nc2ccccc2)c2ccccc21` (configuration not stated), the total growth inhibition concentration (TGI) in assay [1] was 49.4 µM; in assay [2] it was 85.2 µM; in [3], more than 100 µM; in [4], 42.7 µM; in assay [5], 51.8 µM; in [6], 50.3 µM. In addition, the total growth inhibition concentration (TGI) was 49.6 µM in [7]; 55.7 µM in [8]; 83.6 µM in assay [9]; 46.4 µM in assay [10]; 40.3 µM in [11]; 69.2 µM in assay [12]. The TGI in assay [13] is 78.2 µM.
Consider `CC12CN(CC[N+](C)(C)C)CC1(C)C1CCC2O1` (configuration not stated), for which the TGI in assay [1], in [2], in assay [3], in assay [4], in assay [5] and in assay [6] was more than 100 µM each time. Moreover, the TGI in assay [7], in assay [8], in [9], in [10], in assay [11] and in assay [12] was more than 100 µM each time. Further, in [13], the TGI was more than 100 µM.
As for `C=CCNC1=C2C[C@@H](C)C[C@@H](OC)[C@H](OC(=O)CN(C)C)[C@H](C)/C=C(\C)[C@@H](OC(N)=O)[C@H](OC)/C=C\C=C(/C)C(=O)NC(=CC1=O)C2=O`, the TGI in [1] was 11.6 µM; in assay [2], 20.8 µM; in assay [3], 25.7 µM; in assay [4], 17.2 µM; in assay [5], more than 48.2 µM; in assay [6], 14.3 µM. The concentration for total growth inhibition (TGI) in [7] was 31.9 µM; in assay [8] it was 16.9 µM; in [9], 26.9 µM; in assay [10] it was more than 32 µM; in assay [11] it was more than 41.3 µM; in [12], 16.6 µM. For the same compound, the total growth inhibition concentration (TGI) in assay [13] is 16.3 µM.
As for `COc1cccc2c1C(=O)C(=O)c1c-2oc(=O)c2cc(C)cc(OC)c12`, the concentration for total growth inhibition (TGI) in assay [1] was more than 75 µM; in assay [2] it was more than 75 µM; in [3], more than 75 µM; in [4], 32.4 µM; in [5], 62.4 µM; in assay [6] it was 72.5 µM. Besides, the concentration for total growth inhibition (TGI) is more than 75 µM in [7]; more than 75 µM in [8]; more than 75 µM in [9]; more than 75 µM in assay [10]; 42.8 µM in [11]; more than 75 µM in assay [12]. This compound returned a TGI in assay [13] of more than 75 µM.
With `C#CCCCC(=C)C[C@H](OCc1ccccc1)[C@H]1OC(=O)[C@@H]1C`, the TGI in assay [1] is more than 100 µM; in [2], more than 100 µM; in [3], more than 100 µM; in assay [4], more than 100 µM; in [5] it was 83.7 µM; in [6] it was more than 100 µM. Further, the TGI in assay [7] is 46.5 µM; in assay [8], more than 100 µM; in assay [9], more than 100 µM; in assay [10], more than 100 µM; in [11], more than 100 µM; in assay [12] it was more than 100 µM. In assay [13], this compound registered a TGI of more than 100 µM.
As for `O=C1c2ccccc2C(=O)c2c(OCC3CO3)ccc(OCC3CO3)c21` (configuration not stated), the TGI stood at 7.95 µM in assay [1]; 27.2 µM in [2]; 12 µM in [3]; 19.4 µM in [4]; 19.8 µM in assay [5]; 2.59 µM in [6]. Moreover, the TGI in assay [7] was found to be 10.6 µM; in assay [8] it was 22.2 µM; in assay [9], 5.68 µM; in [10], 1.55 µM; in [11] it was 8.31 µM; in assay [12] it was 12 µM. Also, the TGI in assay [13] came to 53.1 µM.
On to `O=C(O)CN1CCNCCN(CC(=O)O)CC1`, for which the TGI in assay [1], in [2], in [3], in [4], in assay [5] and in assay [6] was more than 100 µM in each case. Moreover, the TGI in assay [7] was more than 100 µM; in [8], more than 80 µM; in [9] it was more than 100 µM; in assay [10] it was more than 29.4 µM; in [11] it was more than 100 µM; in assay [12] it was more than 100 µM. For the same compound, the concentration for total growth inhibition (TGI) in assay [13] is more than 90.6 µM.
For `CCOC(=O)Cn1c(=O)c2nc(SC)sc2n(-c2ccc(C)cc2)c1=S`, the TGI in assay [1] was more than 100 µM; in assay [2] it was 54.1 µM; in assay [3] it was more than 100 µM; in assay [4] it was more than 100 µM; in assay [5], more than 100 µM; in assay [6], more than 100 µM. Moreover, the TGI in assay [7] was more than 100 µM; in assay [8], more than 100 µM; in assay [9], more than 100 µM; in assay [10], more than 100 µM; in [11], 61.1 µM; in [12] it was more than 100 µM. In assay [13], this compound gave a TGI of more than 89.8 µM.
`COC(=O)/C=C\c1ccc2c(c1)CC1(C2)Cc2ccc(/C=C/C(=O)OC)cc2C1` (configuration not stated): the TGI was more than 31.6 µM in [1]; more than 100 µM in [2]; more than 100 µM in assay [3]; more than 31.6 µM in assay [4]; more than 31.6 µM in assay [5]; more than 31.6 µM in assay [6]. For the same compound, the total growth inhibition concentration (TGI) in assay [7] was more than 100 µM; in [8] it was more than 31.6 µM; in assay [9], more than 100 µM; in [10], more than 31.6 µM; in assay [11], more than 31.6 µM; in assay [12], more than 31.6 µM. The compound also showed a total growth inhibition concentration (TGI) in assay [13] of more than 31.6 µM.
On to `Cc1cc(C)c2c(=O)cc(-c3ccc(Cl)cc3)[nH]c2n1`, for which the TGI in assay [1] was more than 100 µM; in assay [2], more than 100 µM; in assay [3], more than 75.2 µM; in [4], 83.1 µM; in assay [5], more than 100 µM; in [6] it was more than 100 µM. The TGI in assay [7] is more than 55.4 µM; in [8], more than 100 µM; in [9], more than 100 µM; in [10], more than 100 µM; in [11], more than 100 µM; in assay [12] it was more than 50.7 µM. The compound also showed a total growth inhibition concentration (TGI) in assay [13] of more than 100 µM.
Regarding `CCOC(=O)c1sc2nc(SC)nc(Nc3ccc4c(c3)OCCCO4)c2c1N`, the concentration for total growth inhibition (TGI) in [1], in assay [2], in assay [3], in assay [4], in assay [5] and in assay [6] was more than 100 µM each time. For the same compound, the TGI was more than 100 µM in assay [7]; more than 100 µM in [8]; more than 100 µM in [9]; more than 100 µM in assay [10]; 41.7 µM in assay [11]; more than 100 µM in [12]. The same compound displayed a TGI in [13] of more than 100 µM.
`CCOC(=O)CSc1nc(-c2ccc(OC)cc2)c(C#N)c(=O)[nH]1`: the total growth inhibition concentration (TGI) in assay [1], in [2], in [3], in assay [4], in [5] and in [6] was more than 100 µM in each case. The TGI in assay [7], in assay [8], in [9], in [10], in [11] and in assay [12] was more than 100 µM each time. Also, the total growth inhibition concentration (TGI) in assay [13] was more than 100 µM.
For `CNC(=O)Nc1cc2c3c(c1)CCCN3CCC2`, the TGI in [1], in [2], in assay [3], in assay [4], in assay [5] and in [6] was more than 10 µM throughout. For the same compound, the TGI in [7], in [8], in [9], in [10], in assay [11] and in [12] was more than 10 µM each time. In addition, the total growth inhibition concentration (TGI) in [13] is more than 10 µM.
Take `CC(=O)OCC1OC(n2c(C)c(N=Nc3ccc(C)cc3)c(C)c(C#N)c2=S)C(OC(C)=O)C(OC(C)=O)C1OC(C)=O` (configuration not stated): the TGI in assay [1], in assay [2], in assay [3], in assay [4], in assay [5] and in assay [6] was more than 100 µM in each case. In addition, the total growth inhibition concentration (TGI) in assay [7], in assay [8], in assay [9], in assay [10], in [11] and in [12] was more than 100 µM throughout. The TGI in assay [13] was more than 100 µM.
On to `NCC(=O)C(O)C(O)C(O)CO` (configuration not stated), for which the total growth inhibition concentration (TGI) in assay [1], in assay [2], in [3], in assay [4], in [5] and in [6] was more than 100 µM throughout. In addition, the TGI in assay [7], in assay [8], in [9], in assay [10], in assay [11] and in assay [12] was more than 100 µM throughout. This compound also came in with a TGI in assay [13] of more than 100 µM.
Turning to `O=C(NO)c1cccc(OCc2ccc(Br)cc2)c1`, the TGI in assay [1] is 20.6 µM; in [2] it was more than 46.4 µM; in [3], more than 100 µM; in assay [4], more than 100 µM; in [5], 24.3 µM; in assay [6] it was more than 65 µM. Besides, the TGI was 15 µM in assay [7]; more than 58.5 µM in assay [8]; more than 100 µM in [9]; 37.3 µM in assay [10]; 25.6 µM in assay [11]; 49.9 µM in assay [12]. In assay [13], this compound showed a concentration for total growth inhibition (TGI) of more than 100 µM.
Consider `O=C(NNC(=S)Nc1ccccc1)C12CC3CC(CC(C3)C1)C2`, for which the TGI in assay [1], in assay [2], in assay [3], in assay [4], in assay [5] and in [6] was more than 100 µM in each case. The TGI was more than 100 µM in [7]; more than 100 µM in [8]; more than 100 µM in assay [9]; 22.5 µM in [10]; more than 100 µM in assay [11]; more than 100 µM in assay [12]. The total growth inhibition concentration (TGI) in assay [13] is more than 100 µM.
Regarding `O=C(OCc1ccccc1)N1CCNCCNCC1`, the TGI in assay [1], in assay [2], in [3], in assay [4], in assay [5] and in [6] was more than 100 µM each time. Further, the TGI in assay [7], in assay [8], in assay [9], in [10], in [11] and in assay [12] was more than 100 µM each time. In addition, the TGI in assay [13] was more than 100 µM.
